Columns and labels:
[1] = target: T1, Cathepsin K (Homo sapiens) (UniProt P43235); assay: (§1) Inhibitory activity against cathepsin K; design: concentration or dose not given beside the values; conditions: concentration not given here
T1 sequence (whole entry): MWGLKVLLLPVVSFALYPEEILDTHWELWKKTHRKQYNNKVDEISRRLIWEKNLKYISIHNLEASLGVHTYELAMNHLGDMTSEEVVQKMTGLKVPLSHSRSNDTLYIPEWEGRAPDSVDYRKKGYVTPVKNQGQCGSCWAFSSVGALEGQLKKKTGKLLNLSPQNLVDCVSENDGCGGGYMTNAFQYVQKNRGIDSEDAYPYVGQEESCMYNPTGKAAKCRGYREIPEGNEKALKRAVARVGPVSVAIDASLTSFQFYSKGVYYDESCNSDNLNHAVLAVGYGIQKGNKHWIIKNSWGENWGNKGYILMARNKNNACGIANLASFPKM

[2] = target: T2, Cathepsin K (Homo sapiens, UniProt P43235); assay: as §1
T2 sequence (P43235 whole entry): T1 sequence (whole entry)

[3] = target: T2, Cathepsin K; assay: Inhibitory activity against Cathepsin K

`CC[C@H](C)[C@@H](/C=C/c1ccccc1)NC(=O)[C@@H]1Cc2ccccc2CN1CC(=O)c1ccccc1` was tested, and the inhibition [1] was 29%.
`CC[C@H](C)[C@@H](/C=C/c1ccccc1)NC(=O)[C@@H]1CCCCN1CC(=O)c1ccc2c(c1)OCO2` gave an IC50 [2] of 590 nM.
With `CC[C@H](C)[C@@H](/C=C/c1ccccc1)NC(=O)[C@@H]1CCCCN1CC(=O)c1ccc(C#N)cc1` the inhibition [1] was 16%.
`CC[C@H](C)[C@@H](/C=C/c1ccccc1)NC(=O)[C@@H]1CCCCN1CC(=O)c1ccccc1` was tested, and the IC50 [2] was 230 nM.
Molecule `CC[C@H](C)[C@@H](/C=C/c1ccccn1)NC(=O)[C@@H]1CCCCN1CC(=O)c1ccccc1` has an inhibition [1] of 26%.
Molecule `CC[C@H](C)[C@@H](/C=C/c1ccccc1C)NC(=O)[C@@H]1CCCCN1CC(=O)c1ccccc1` has an IC50 [2] of 590 nM.
For `CC[C@H](C)[C@@H](/C=C/c1ccccc1)NC(=O)[C@@H]1CCCCN1CC(=O)c1cccc([N+](=O)[O-])c1`, the inhibition [1] was 11%.
`COc1cc(C(=O)CN2CCCC[C@H]2C(=O)N[C@H](/C=C/c2ccccc2)CC(C)C)cc(OC)c1OC` gave an IC50 [2] of 1500 nM.
`CC[C@H](C)[C@@H](/C=C/c1ccc(Cl)cc1)NC(=O)[C@@H]1CCCCN1CC(=O)c1ccccc1` was tested, and the IC50 [2] was 1400 nM.
`CC[C@H](C)[C@@H](/C=C/c1ccccc1)NC(=O)[C@@H]1CCCCN1CC(=O)c1c(OC)cccc1OC` gave an IC50 [2] of 700 nM.
Molecule `CC[C@H](C)[C@@H](/C=C/c1ccccc1)NC(=O)[C@@H]1CCCCN1CC(=O)c1ccc(OC)cc1` has an IC50 [2] of 410 nM.
`CC[C@H](C)[C@@H](/C=C/c1ccccc1)NC(=O)[C@@H]1CCCN1CC(=O)c1ccccc1` gave an inhibition [1] of 15%.
Work on `CC[C@H](C)[C@@H](/C=C/c1ccc(C)cc1)NC(=O)[C@@H]1CCCCN1CC(=O)c1ccccc1` yielded an IC50 [2] of 740 nM.
With `COc1cc(C(=O)CN2CCCC[C@H]2C(=O)N[C@H](/C=C/c2ccccc2)Cc2ccccc2)cc(OC)c1OC` the inhibition [1] was 20%.
For `CC[C@H](C)[C@@H](/C=C/c1ccccc1)NC(=O)[C@@H]1CCCCN1CC(C)=O`, the inhibition [1] was 3%.
With `CC(C)[C@@H](/C=C/c1ccccc1)NC(=O)[C@@H]1CCCCN1CC(=O)c1ccccc1` the IC50 [3] was 780 nM.
`CC(C)C[C@@H](/C=C/c1ccccc1)NC(=O)[C@@H]1CCCCN1CC(=O)c1ccccc1` was tested, and the IC50 [2] was 840 nM.
`O=C(CN1CCCC[C@H]1C(=O)Nc1ccc2oc3ccccc3c2c1)c1ccccc1` was tested, and the inhibition [1] was < 1%.
Work on `CC[C@H](C)[C@@H](/C=C/c1ccccc1)NC(=O)[C@@H]1C=CCN1CC(=O)c1ccccc1` yielded an inhibition [1] of 43%.
Work on `CCC(=O)CN1CCCC[C@H]1C(=O)N[C@H](/C=C/c1ccccc1)[C@@H](C)CC` yielded an inhibition [1] of 22%.
For `CC[C@H](C)[C@@H](/C=C/c1ccccc1)NC(=O)[C@@H]1CCCCN1CC(=O)c1ccc([N+](=O)[O-])cc1`, the inhibition [1] was 28%.
Work on `O=C(CN1CCCC[C@H]1C(=O)Nc1cccc(-c2ccccc2)c1)c1ccccc1` yielded an inhibition [1] of 2%.
In the case of `CC[C@H](C)[C@H](NC(=O)[C@@H]1CCCCN1CC(=O)c1ccccc1)C(=O)Nc1ccccc1`, the inhibition [1] is reported as 8%.
With `CC[C@H](C)[C@@H](/C=C/c1ccccc1)NC(=O)[C@@H]1CCCCN1CC(=O)c1cc(OC)c(OC)c(OC)c1` the IC50 [2] was 1200 nM and the Ki [2] was 790 nM.
Work on `CC[C@H](C)[C@@H](/C=C/c1ccccc1)NC(=O)[C@@H]1CCCCN1CC(=O)c1ccc(Cl)cc1` yielded an IC50 [2] of 280 nM.
Work on `CC[C@H](C)[C@@H](/C=C/c1ccccc1)NC(=O)[C@@H]1CCCCN1CC(=O)c1ccc(NC(C)=O)cc1` yielded an inhibition [1] of 42%.
Molecule `CC(C)C[C@H](NC(=O)OCc1ccccc1)C(=O)NC1CN(C(=O)[C@H](CC(C)C)NC(=O)OCc2ccccc2)CC1=O` (stereo not given in full) has a Ki [3] of 2 nM.
In the case of `CC[C@H](C)[C@@H](/C=C/c1ccncc1)NC(=O)[C@@H]1CCCCN1CC(=O)c1ccccc1`, the inhibition [1] is reported as 8%.
For `CC[C@H](C)[C@@H](/C=C/c1ccccc1)NC(=O)[C@@H]1CCCCN1CC(O)c1cc(OC)c(OC)c(OC)c1` (stereo not given in full), the inhibition [1] was 8%.

— ChEMBL document CHEMBL1134744, “Discovery and parallel synthesis of a new class of cathepsin K inhibitors” (Bioorg Med Chem Lett, 2001)
